This note sets out measurements from US7915220B2, “Peptidomimetic agents from dextrorotatory amino acids as well as pharmaceutical agents that contain the latter for treatment of neurodegenerative diseases” (JSW-Research Forschungslabor GmbH, priority 2006, dated 2011).

A short description of series [1]: Stability of peptides incubated with rat brain homogenate (RP-HPLC / LC-MS). It counts as in vitro ADME. The conditions noted are these: for remaining at 0.25 h, 0.2 mM / remaining at 1 h, 0.2 mM / remaining at 3 h, 0.2 mM / remaining at 24 h, 0.2 mM: pH 7.6, 37° C.; for remaining at 0.25 h, 0.2 mM: 15 minutes, read-out: portion of the amount of sample used left after 15 Minutes; for remaining at 1 h, 0.2 mM: read-out: portion of the amount of sample used left after 1 Hour; for remaining at 3 h, 0.2 mM: read-out: portion of the amount of sample used left after 3 Hours; for remaining at 24 h, 0.2 mM: read-out: portion of the amount of sample used left after 24 Hours; for half-life at 0.2 mM: tris buffer pH 7.6, 37° C. The procedure: An essential advantage of the peptidomimetic agents according to the invention, which consist of D-amino acids as well as glycine, is the higher stability compared to the degradation by various enzymes that occur in the body—in particular peptidases. For this reason, the stability of the nuclear sequence mimetic agent vGek was compared to that of the corresponding retroinverse peptide KEGV according to WO 03/082906 A, whereby the peptides together with a rat brain homogenate were incubated for 15 minutes as well as for 1, 3 and 24 hours.
To this end, freshly isolated rat brain was homogenized in tris buffer (pH 7.6) and used immediately. In each case, a portion of a 1 mmol peptide solution and four parts of the homogenate were incubated at 37° C. After the incubation, the decomposition of the enzymes was halted by adding 50 μl of 0.1 M HCl. Then, a denaturation of the proteins was carried out with methanol (volume ratio: 1:4) at −20° C. for 60 minutes. Then, it was centrifuged for 20 minutes at 4° C. and 29,000 g.
Finally, the samples were concentrated under vacuum and analyzed by means of RP-HPLC (liquid chromatography, with UV/vis detector, detection wavelength: 220 nm; solvent: (A) 0.1% TFA/water (A), 0.1% TFA in 80% ACN/water (B); column: Phenomenex Jupiter C18 (250×4 mm, 5 μm of 300 Å), flow rate: 1.2 ml/minute, gradients: 0 to 15% B after 30 minutes (KEGVOH), 0% isocratic B for 10 minutes, then at 0 to 15% B after 30 minutes (KEGVNH2), 0 to 15% B after 20 minutes (vGekNH2)).
As an alternative, LC-MS (Applied Biosystems 140C Microgradient System; solvent: 0.1% HCOOH/water (A), 0.1% HCOOH in 80% acetonitrile/water (B); column: Alltech Hypersil C18 (150×2.1 mm, 5 μm of 100 Å), flow rate: 0.15 ml/minute, gradient: 0 to 15% B after 20 minutes; detector: Finnigan TSQ-7000 Triple Quadrupole Mass Spectrometer, m/z Range; 10-1000, scan time: 1.0 second) was also used.

The test system of a further series is SHSY-5Y cells. Description: MTT test, injury of differentiated SHSY-5Y cells with pre-aggregated Aβ-1-42. It counts as cell-based. How it is done:
To examine the action of the peptidomimetic agent according to the invention in a relevant biological system, injury tests were performed in cell cultures with Aβ-1-42 (β-amyloid). Differentiated SHSY-5Y cells were used as cell culture systems.
The cells that were still not differentiated were cultivated in 96-well plates at 37° C. in an atmosphere in DMEM/F12 (Cambrex) that contains 5% CO2 until confluence is completed. For differentiation, the following medium composition was selected: 10 μmol of All-Trans-retinoic acid, 10% FBS, 4 mmol of L-glutamine, 200 units/ml of penicillin, 200 μg/ml of streptomycin, 0.5% DMSO in MEM non-essential amino acids (e.g., Cambrex). After 8 days in the differentiation medium, 3×10^5 cells/cm^2 in the form of a monolayer were present.
Before the application, the test substances were irradiated for 10 minutes in a form already dissolved in culture medium. This medium contained 2% FBS (fetal bovine serum) and was free of phenol red, retinoic acid and DMSO.
Aβ-1-42 was pre-aggregated before the addition for 24 hours at room temperature while being shaken lightly. […]
Then, the medium was carefully emptied, and the formazan crystals that were produced were dissolved with a DMSO/ethanol solution (4:1). Finally, the color intensity obtained was measured at 550 nm in an ELISA reader. […]
(Tetrazolium assays rely on reduction of a dye to a coloured formazan, in cell work by metabolically active cells.)

Series [2] can be described thus: Blood-brain barrier passage of tritiated vGek in rats (radioactivity in organs). In kind it is in vivo. How it is done:
The test was performed as follows:
Rats were injected with […] of tritiated vGek (vGek of specific activity: 34.0 Ci/mmol). 10, 30 and 60 minutes after the injection, the animals were anesthetized, and blood as well as a few organs were removed for examination and weighed. Depending on the organ, 50-250 mg of tissue was removed in a solvent and incubated at 60° C. for 2 hours. After cooling to room temperature, 200 μl of 30% H2O2 was added. Then, another incubation at 60° C. was carried out for 30 minutes. Finally, the radioactivity was determined with the aid of a scintillation measuring device.

Where a SMILES comes first, the peptide text is derived from it. [ ]: non-standard residue; d: D form.

Broadly, the half-life is the time needed for the level to fall by half in the phase considered. `CC(C)[C@H](NC(=O)CNC(=O)[C@H](CCC(=O)O)NC(=O)[C@@H](N)CCCCN)C(N)=O` [KEGVNH2] (H-KEGV-NH2; N-terminus assumed): in series [1], the remaining at 0.25 h, 0.2 mM is 22%; the remaining at 1 h, 0.2 mM is 0%; the remaining at 3 h, 0.2 mM is 0%; the half-life at 0.2 mM is less than 0.25 h. Also, the remaining at 24 h, 0.2 mM in series [1] (24 hours) was 0%.
Regarding `CC(C)[C@H](NC(=O)CNC(=O)[C@H](CCC(=O)O)NC(=O)[C@@H](N)CCCCN)C(=O)O` [KEGVOH] (H-KEGV-OH; N-terminus assumed), in series [1], the remaining at 0.25 h, 0.2 mM was 14%; the remaining at 1 h, 0.2 mM is 0%; the remaining at 3 h, 0.2 mM was 0%; the half-life at 0.2 mM is less than 0.25 h. Besides, in series [1] (24 hours), the remaining at 24 h, 0.2 mM was found to be 0%.
For the compound `CC(C)[C@@H](N)C(=O)NCC(=O)N[C@H](CCC(=O)O)C(=O)N[C@H](CCCCN)C(=O)O` [vGek, Dval-gly-Dglu-Dlys] (H-[dV]G[dE][dK]-OH; N-terminus and C-terminus assumed), the “stability above that of the corresponding peptide KEGV” value in series [1] (in vitro) is 2-3 orders of magnitude. In the series with SHSY-5Y cells (50 μmol vGek alone), the “influence on the survival of cells (toxicity of the peptide alone)” value is given as “no detectable influence on the survival of cells”. Also, in series [2] (injection of 2.94 mmol tritiated vGek), the “highest measured value in the brain” value is 1.33 pmol. The “passage through the blood-brain barrier” value in series [2] (tritiated vGek) was “could overcome the blood-brain barrier”.
Turning to `CC(C)[C@@H](N)C(=O)NCC(=O)N[C@H](CCC(=O)O)C(=O)N[C@H](CCCCN)C(N)=O` [vGekNH2] (H-[dV]G[dE][dK]-NH2; N-terminus assumed), in series [1] (37° C., 24 hours), the “detectability of peptide after 24 hours” value is reported as “can be detected”. In addition, in series [1], the remaining at 3 h, 0.2 mM turned out to be 70% and the half-life at 0.2 mM lay within 20 to 24 h. Besides, the remaining at 24 h, 0.2 mM in series [1] (24 hours) came out at 50%.
As for “Aβ-1-42: amyloidogenic β-amyloid peptide with 42 amino acids, used pre-aggregated to damage cells”, the “survival rate of SHSY-5Y cells” value in the series on SHSY-5Y cells (10 μmol of pre-aggregated Aβ-1-42 alone) was determined as 56%.
